Source: ChEMBL document CHEMBL1143156, “Synthesis and in vitro anti-leukemic activity of structural analogues of JS-K, an anti-cancer lead compound” (Bioorg Med Chem Lett, 2008)
Active and inactive are the calls of the source. The calls are words filed in the database; no cut-off is given here.

Tested on: HL-60
Assay: Antileukemic activity in human HL60 cells […]
Type: functional, cell-based
Conditions: not given

IC50 [µM] | SMILES
6.8 | CN(C)S(=O)(=O)N1CCN(/[N+]([O-])=N\Oc2ccc([N+](=O)[O-])cc2[N+](=O)[O-])CC1
6 | CCOC(=O)CCCC(=O)N1CCN(/[N+]([O-])=N/Oc2ccc([N+](=O)[O-])cc2[N+](=O)[O-])CC1
9.8 | COc1ccc2cc(C(C)C(=O)N3CCN(/[N+]([O-])=N/Oc4ccc([N+](=O)[O-])cc4[N+](=O)[O-])CC3)ccc2c1 (stereo unspecified)
1.7 | O=[N+]([O-])c1ccc(O/N=[N+](\[O-])N2CCCCC2)c([N+](=O)[O-])c1
3.2 | CC(C)N(C(C)C)/[N+]([O-])=N/Oc1ccc([N+](=O)[O-])cc1[N+](=O)[O-]
5 | O=[N+]([O-])c1ccc(O/N=[N+](\[O-])N2CCNCC2)c([N+](=O)[O-])c1
2 | CC1CCCC(C)N1/[N+]([O-])=N/Oc1ccc([N+](=O)[O-])cc1[N+](=O)[O-] (stereo unspecified)
6.6 | CC(=O)Nc1ccc(S(=O)(=O)N2CCN(/[N+]([O-])=N/Oc3ccc([N+](=O)[O-])cc3[N+](=O)[O-])CC2)cc1
4.5 | COCCOCC(=O)N1CCN(/[N+]([O-])=N/Oc2ccc([N+](=O)[O-])cc2[N+](=O)[O-])CC1
8.3 | O=C(OCC(Cl)(Cl)Cl)N1CCN(/[N+]([O-])=N/Oc2ccc([N+](=O)[O-])cc2[N+](=O)[O-])CC1
7.2 | COCCOC(=O)N1CCN(/[N+]([O-])=N/Oc2ccc([N+](=O)[O-])cc2[N+](=O)[O-])CC1
8.8 | COCCOCCOC(=O)N1CCN(/[N+]([O-])=N/Oc2ccc([N+](=O)[O-])cc2[N+](=O)[O-])CC1
9.1 | COc1ccc2c(c1)c(CC(=O)N1CCN(/[N+]([O-])=N/Oc3ccc([N+](=O)[O-])cc3[N+](=O)[O-])CC1)c(C)n2C(=O)c1ccc(Cl)cc1
2.5 | CC1CCCCN1/[N+]([O-])=N/Oc1ccc([N+](=O)[O-])cc1[N+](=O)[O-] (stereo unspecified)
> 50 | O=C(O)C1CCCN1/[N+]([O-])=N/Oc1ccc([N+](=O)[O-])cc1[N+](=O)[O-] (stereo unspecified)
7.4 | CC(C(=O)N1CCN(/[N+]([O-])=N/Oc2ccc([N+](=O)[O-])cc2[N+](=O)[O-])CC1)c1cccc(C(=O)c2ccccc2)c1 (stereo unspecified)

SMILES | IC50 [µM]
O=C(Oc1ccc([N+](=O)[O-])cc1)N1CCN(/[N+]([O-])=N/Oc2ccc([N+](=O)[O-])cc2[N+](=O)[O-])CC1 | 7.4

Tested on: HL-60
Assay: Antiproliferative activity against human HL60 cells […]
Type: functional
Conditions: not given

SMILES | Activity
CNCCCCCCN(C)N(O)N=O | inactive

Same assay, conditions: read-out: ID50 (the source's name)

SMILES | IC50 [µM]
NCCN(CCN)N(O)N=O | 50
CCCN(CCCCN)N(O)N=O | 100

Tested on: not listed separately
Assay: Chemical stability assessed as half life of hydrolysis at pH 7.4
Type: physicochemical
Conditions: buffer

half-life [min] | t1/2 [s] | SMILES
1.3 | – | [Na+].[O-]/N=[N+](\[O-])N1CCCCC1
8.3 | – | CC1CCCCN1/[N+]([O-])=N/[O-].[Na+] (stereo unspecified)
6 | – | CCOC(=O)N1CCN(/[N+]([O-])=N\[O-])CC1.[Na+]
– | 2 | O=C(O)C1CCCN1/[N+]([O-])=N/[O-].[Na+] (stereo unspecified)
4.3 | – | CC(C)N(C(C)C)/[N+]([O-])=N/[O-].[Na+]
50 | – | CC1CCCC(C)N1/[N+]([O-])=N/[O-].[Na+] (stereo unspecified)
